Reference: patent US20240299568A1, “BONE-SPECIFIC DELIVERY OF POLYPEPTIDES” (William Marsh Rice University, priority 2021, published 2024)

System: MDA-MB-361 cells
Test: MDA-MB-361 bone micrometastasis xenograft (IIA injection)
[1] = significance vs PBS group, end of experiment

## NCCCC(O)(P(=O)(O)O)P(=O)(O)O [ALN, Alendronate]
82 days after tumor implantation
  bone mass loss of femurs (microCT): significant losses of bone mass
ALN 10 μg/kg, Tras, Tras-ALN 1 mg/kg, retro-orbital twice a week
  development of micrometastases / lesions (BLI imaging): accumulated rapidly
H&E bone sections
  tumor burden, histomorphometric analysis of tibiae and femurs: high tumor burdens
Significance vs PBS group, BLI of day 87/BLI of day 6, two-way ANOVA
  BLI Fold-increase: NS (NS represents P > 0.05)
Significance vs PBS group, TRAP-stained tibia/femur sections, end of experiment
  Osteoclast activity Osteoclast number: * (* P < 0.05)
[1]
  Osteoclast activity Serum Calcium: NS (NS represents P > 0.05)
  Osteoclast activity Serum TRACP 5b: NS (NS represents P > 0.05)
Significance vs PBS group, endpoint BLI intensity over 10^7, log-rank test
  Survival: NS (NS represents P > 0.05)
Significance vs PBS group, whole-body BLI over the course of the experiment, two-way ANOVA
  BLI Progression: NS (NS represents P > 0.05)
